The record followed here is patent US8119629B2, “Carboxamide GABAA α2 modulators” (Bristol-Meyers Squibb Company, priority 2007, dated 2012).

Structures can show the parent of a compound that is named as a salt.

The target of one assay is T1, rat GABAA α2β2γ2 Receptors (Rattus norvegicus, UniProt P23576).
T1 construct: expressed in transfected cells; pIRES Neo2 / Hygro2 / Puro2 vectors
T1 sequence (P23576 29-451): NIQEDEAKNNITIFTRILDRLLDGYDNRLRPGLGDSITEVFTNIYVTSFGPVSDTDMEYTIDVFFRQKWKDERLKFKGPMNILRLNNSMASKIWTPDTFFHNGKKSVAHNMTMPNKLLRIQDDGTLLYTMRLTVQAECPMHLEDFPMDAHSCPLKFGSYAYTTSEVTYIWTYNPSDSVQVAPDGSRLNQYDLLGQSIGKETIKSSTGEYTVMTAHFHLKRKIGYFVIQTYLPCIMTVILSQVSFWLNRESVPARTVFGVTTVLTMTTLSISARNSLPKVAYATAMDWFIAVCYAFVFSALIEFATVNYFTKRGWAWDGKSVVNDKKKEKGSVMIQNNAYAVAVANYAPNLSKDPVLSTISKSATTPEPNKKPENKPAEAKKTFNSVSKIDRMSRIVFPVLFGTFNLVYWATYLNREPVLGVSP
T1 sequence (P63138 25-474 partner limits assumed): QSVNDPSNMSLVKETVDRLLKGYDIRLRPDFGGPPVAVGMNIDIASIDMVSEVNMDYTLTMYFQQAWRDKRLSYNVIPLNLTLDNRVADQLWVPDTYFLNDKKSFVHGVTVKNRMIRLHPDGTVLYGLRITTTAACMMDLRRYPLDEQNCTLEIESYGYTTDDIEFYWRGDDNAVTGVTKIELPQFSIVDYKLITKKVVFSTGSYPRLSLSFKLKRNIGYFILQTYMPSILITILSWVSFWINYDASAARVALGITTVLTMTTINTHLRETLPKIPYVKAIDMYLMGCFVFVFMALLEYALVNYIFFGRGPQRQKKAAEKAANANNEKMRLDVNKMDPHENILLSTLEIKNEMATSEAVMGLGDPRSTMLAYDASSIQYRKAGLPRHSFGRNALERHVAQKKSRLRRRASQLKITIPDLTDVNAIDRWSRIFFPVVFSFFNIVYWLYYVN
T1 sequence (P18508 39-466 partner): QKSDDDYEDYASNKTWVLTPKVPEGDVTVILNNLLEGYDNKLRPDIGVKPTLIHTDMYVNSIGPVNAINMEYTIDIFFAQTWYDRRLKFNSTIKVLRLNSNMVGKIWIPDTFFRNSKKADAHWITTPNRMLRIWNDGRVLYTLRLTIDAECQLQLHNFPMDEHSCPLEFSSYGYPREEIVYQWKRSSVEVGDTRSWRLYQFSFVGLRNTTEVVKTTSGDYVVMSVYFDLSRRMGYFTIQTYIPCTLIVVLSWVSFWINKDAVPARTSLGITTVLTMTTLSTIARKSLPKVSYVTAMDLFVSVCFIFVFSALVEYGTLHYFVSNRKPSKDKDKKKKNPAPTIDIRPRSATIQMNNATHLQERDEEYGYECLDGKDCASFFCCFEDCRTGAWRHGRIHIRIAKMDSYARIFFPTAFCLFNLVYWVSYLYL
In words: PatchXpress 7000A automated parallel patch-clamp: potentiation of GABA EC20 current in HEK293 cells. The format is cell-based. The following applies: percent increase in mean GABA EC20 current response; HEK293 cells stably expressing rat GABAA α2β2γ2; voltage-clamped at −60 mV. The protocol: Cell Line Generation and Transient Expression. In order to generate stable clonal lines expressing GABAA configurations containing α2β2γ2 subunits, HEK293 cells were transfected with 2 μg of the subunit, using the Invitrogen Lipofectamine PLUS protocol. The following DNA and vector were used for the stable transfection: α2 subunits in pIRES Neo2, β2 subunit in pIRES Hygro2, and a γ2 subunit in pIRES Puro2. Transfectants were selected with G418, Hygromycin B, and Puromycin antibiotics and cloned by limiting dilution. For transient expression, transfections were performed using the Amaxa transfection protocol and 2 μg DNA of the GABAA receptor subunit using Amaxa transfection protocol. Cells were used for experiments 24-72 hrs post transfection.
PatchXpress® 7000A Automated Parallel Patch-Clamp System. HEK293 cells stably expressing recombinant the rat GABAA/α2β2γ2 configuration were harvested by a single DPBS wash followed by 0.025% Trypsin-EDTA treatment for one minute at room temperature. A 6-ml cell suspension (1.7×10^5 cells/ml) was centrifuged at 500 rpm for 60 s. The cell pellet was gently agitated, suspended in 150 μl extracellular saline buffer, and transferred to a 1.5-ml tube.
After manually placing the AVIVA Biosciences SealChip 16™ in the holder of the PatchXpress®, the SealChip16™ was automatically prepared for application of the cells. Intracellular solution containing (in mM) CsCl, 135; EGTA, 11; MgCl2, 1; HEPES, 10; ATP, 5; GTP, 0.3 (pH 7.3 with CsOH, 290-300 mOsmol) was injected into the bottom of each chamber, and extracellular solution containing (in mM) NaCl, 140; KCl, 4; CaCl2, 1.8; MgCl2, 1; glucose, 10; HEPES, 10; ATP-K2, 5 (pH 7.4 with NaOH 305-310 mOsmol) was perfused into the top of the chambers through a 16-nozzle wash station. Throughout this period, the pressure controller maintained a positive pressure (+10 mmHg) from the intracellular side to keep the hole free of debris. Seal formation was achieved by a ramp increase in negative pressure from 0 to −35 mmHg at a rate of −3.5 mmHg/s every 10 s until a giga ohm seal was obtained and verified for 30 s.
Compounds were prepared from fresh DMSO stock and were transferred to a 96-well disposable glass insert compound plate for placement in the PatchXpress®. A full 10 point concentration-response curve for GABA was obtained for the GABA receptor cell line, from which an EC20 was estimated. Test compounds were assayed for their ability to potentiate the current response by an EC20 concentration of GABA. Each experiment began by two consecutive applications of GABA EC20 alone. Following formation of a giga-ohm seal, patch chambers were perfused with extracellular saline for 60 s to remove excess cells from the well. Cells were then voltage-clamped to −60 mV for the duration of the experiment. After 60 s, 30 μl (10 μl/s over 3 s) of GABA EC20 concentration, which elicited a GABA receptor-mediated inward Cl^− current generally in the order of 200-300 pA in peak amplitude, was added to each chamber. The GABA EC20 concentration was then washed out of the recording chamber after 5 s and washing with extracellular saline was continued for 60 s. After another 60 s, a second GABA EC20 concentration was applied under the same paradigm. […] Following the second GABA EC20 application, the lowest concentration of test compound in the presence of the GABA EC20 concentration was similarly applied. Ascending concentrations of the test compound were applied successively to an individual well in the presence of the GABA EC20 concentration.
Only cells meeting strict predetermined patch-clamp QC parameters, including seal resistance, membrane resistance, and holding current were included in data analysis. GABA current responses in the presence of test compound were measured and expressed as the mean of the initial control GABA EC20 current responses. The peak current amplitude was measured using DataXpress/pCLAMP9 (Axon Instruments). Linear leak subtraction was performed off-line. […]
As for “N-Cyclopropyl-8-ethynyl-6-phenyl-4H-benzo[f]imidazo[1,5-a][1,4]diazepine-3-carboxamide [Example 11]”, the “GABAA α2 EP EMAX (%)” value is reported as “** (300% < Emax < 400 **)”.

Still in this assay, the particulars now being: percent increase in mean GABA EC20 current response; HEK293 cells stably expressing rat GABAA α2β2γ2; voltage-clamped at −60 mV; read-out: GABAA α2 EP EMAX (%).
Take `C#Cc1ccc2c(c1)C(c1ccccc1)=NCc1c(C(=O)NC[C@H](C)O)ncn1-2` [Example 28, 8-Ethynyl-N—((S)-2-hydroxypropyl)-6-phenyl-4H-benzo[f]imidazo[1,5-a][1,4]diazepine-3-carboxamide]: the Emax lay within 300 to 400%. In the case of `C#Cc1ccc2c(c1)C(c1ccccc1)=NCc1c(C(=O)NCCCO)ncn1-2` [Example 29, 8-Ethynyl-N-(3-hydroxypropyl)-6-phenyl-4H-benzo[f]imidazo[1,5-a][1,4]diazepine-3-carboxamide dihydrochloride], the Emax was in the range of 300 to 400%. With `C#Cc1ccc2c(c1)C(c1ccccc1)=NCc1c(C(=O)NCCCCCO)ncn1-2` [Example 30, 8-Ethynyl-N-(5-hydroxypentyl)-6-phenyl-4H-benzo[f]imidazo[1,5-a][1,4]diazepine-3-carboxamide dihydrochloride], the Emax is 300 to 400%. Take `C#Cc1ccc2c(c1)C(c1ccccc1)=NCc1c(C(=O)NCCCCO)ncn1-2` [Example 31, 8-Ethynyl-N-(4-hydroxybutyl)-6-phenyl-4H-benzo[f]imidazo[1,5-a][1,4]diazepine-3-carboxamide dihydrochloride]: the Emax was in the range of 300 to 400%. In the case of `C#Cc1ccc2c(c1)C(c1ccccc1)=NCc1c(C(=O)NCCOC(C)=O)ncn1-2` [Example 32, 2-(8-Ethynyl-6-phenyl-4H-benzo[f]imidazo[1,5-a][1,4]diazepine-3-carboxamido)ethyl acetate dihydrochloride], the Emax fell in the range of 300 to 400%. Regarding `C#Cc1ccc2c(c1)C(c1ccccc1)=NCc1c(C(=O)NCC(=O)O)ncn1-2` [Example 33, 2-(8-Ethynyl-6-phenyl-4H-benzo[f]imidazo[1,5-a][1,4]diazepine-3-carboxamido)acetic acid], the Emax was 400 to 500%. As for `C#Cc1ccc2c(c1)C(c1ccccc1F)=NCc1c(C(=O)NCCOC)ncn1-2` [Example 34, 8-Ethynyl-6-(2-fluorophenyl)-N-(2-methoxyethyl)-4H-benzo[f]imidazo[1,5-a][1,4]diazepine-3-carboxamide dihydrochloride], the Emax was 300 to 400%. Regarding `C#Cc1ccc2c(c1)C(c1ccccc1)=NCc1c(C(=O)NCc3ccco3)ncn1-2` [Example 35, 8-Ethynyl-N-(furan-2-ylmethyl)-6-phenyl-4H-benzo[f]imidazo[1,5-a][1,4]diazepine-3-carboxamide, dihydrochloride], the maximal effect (Emax) is 200 to 300%. For the compound `C#Cc1ccc2c(c1)C(c1ccccc1)=NCc1c(C(=O)NCC3CCCO3)ncn1-2` (centres unmarked) [Example 36, 8-Ethynyl-6-phenyl-N-((tetrahydrofuran-2-yl)methyl)-4H-benzo[f]imidazo[1,5-a][1,4]diazepine-3-carboxamide, dihydrochloride], the Emax was in the range of 300 to 400%. As to `C#Cc1ccc2c(c1)C(c1ccccn1)=NCc1c(C(=O)NCCOC)ncn1-2` [Example 37, 8-Ethynyl-N-(2-methoxyethyl)-6-(pyridin-2-yl)-4H-benzo[f]imidazo[1,5-a][1,4]diazepine-3-carboxamide], the Emax was in the range of 200 to 300%.
